Source: patent publication US3991041A, “(Phe3 -Ala)1 -somatostatin” (American Home Products Corporation, priority 1975, dated 1976)

How the values were obtained:
Assay type in all cases: in vivo, albino male rats
[1] = test system: glucagon; experiment: Nembutal/arginine rat test, blood radioimmunoassayed for glucagon
Description: (§1) Nembutal (50 mg/kg) was injected intraperitoneally into each rat. Fifteen minutes later a subcutaneous injection of the test compound, somatostatin (200 μg/kg) and physiological saline (control) was administered separately to each of the three groups of rats. Ten minutes later 0.5 milliliters of arginine (300 mg/ml, pH 7.2) was injected into the rats heart. The rats were decapitated five minutes later and their blood was collected in Trasylol -EDTA. Aliquot samples were radioimmunoassayed for growth hormone, glucagon and insulin. The cyclic heptadecapeptide of this invention, with Trp in the L-configuration and in the form of the C-terminal carboxylic acid, selected as representative of the group of compounds disclosed for test purposes, was employed in two additional distinct test procedures at about 5,000 μg/kg dose levels.

[2] = test system: growth hormone; experiment: Nembutal/arginine rat test, blood radioimmunoassayed for growth hormone
Description: as §1

[3] = test system: insulin; experiment: Nembutal/arginine rat test, blood radioimmunoassayed for insulin
Description: as §1

| Structure (SMILES) | Glucagon ([1]; dose 1,000 μg/kg subcutaneous, arginine-stimulated rats, control 17.1±4.8) [pg/mL] | Glucagon ([1]; dose 4,660 μg/kg, third test, control 3.7±1.3, * Not Significant) [pg/mL] | Glucagon ([1]; dose 5,000 μg/kg, second test, control 14.0±3) [pg/mL] | GH ([2]; dose 1,000 μg/kg subcutaneous, Nembutal 50 mg/kg i.p., arginine intracardiac 10 min after dose, blood 5 min later, control 282±31) [ng/mL] | GH ([2]; dose 4,660 μg/kg, third test, control 202±26) [ng/mL] | GH ([2]; dose 5,000 μg/kg, second test, control 126±25) [ng/mL] | Insulin ([3]; dose 1,000 μg/kg subcutaneous, arginine-stimulated rats, control 243±20, * Not Significant) [μU/ml] | Insulin ([3]; dose 4,660 μg/kg, third test, control 176±1, * Not Significant) [μU/ml] | Insulin ([3]; dose 5,000 μg/kg, second test, control 283±37, * Not Significant) [μU/ml] | Glucagon ([1]; dose 200 μg/kg subcutaneous, arginine-stimulated rats, control 17.1±4.8) [pg/mL] | GH ([2]; dose 200 μg/kg subcutaneous, arginine-stimulated rats, control 282±31) [ng/mL] | Insulin ([3]; dose 200 μg/kg subcutaneous, arginine-stimulated rats, control 243±20) [μU/ml] |
| --- | --- | --- | --- | --- | --- | --- | --- | --- | --- | --- | --- | --- |
| C[C@H](NC(=O)[C@H](Cc1ccccc1)NC(=O)[C@H](Cc1ccccc1)NC(=O)[C@@H](N)Cc1ccccc1)C(=O)NCC(=O)N[C@H]1CSSC[C@@H](C(=O)O)NC(=O)[C@H](CO)NC(=O)[C@H]([C@@H](C)O)NC(=O)[C@H](Cc2ccccc2)NC(=O)[C@H]([C@@H](C)O)NC(=O)[C@H](CCCCN)NC(=O)[C@H](Cc2c[nH]c3ccccc23)NC(=O)[C@H](Cc2ccccc2)NC(=O)[C@H](Cc2ccccc2)NC(=O)[C@H](CC(N)=O)NC(=O)[C@H](CCCCN)NC1=O [Example 3, L-phenylalanyl-L-phenylalanyl-L-phenylalanyl-L-alanylglycyl-L-cysteinyl-L- lysyl-L-asparaginyl-L-phenylalanyl-L-phenylalanyl-L-tryptophyl-L-lysyl-L-threonyl-L-phenylalanyl-L-threonyl-L-seryl-L-cysteine, (6→17) triacetate] | 0.6 ± 0.2 | 1.1 ± 0.5 | 6.5 ± 2.3 | 124 ± 11 | 97 ± 7 | 27 ± 2 | 204±18 | 165±16 | 202±37 |  |  |  |
| C[C@H](N)C(=O)NCC(=O)N[C@H]1CSSC[C@@H](C(=O)O)NC(=O)[C@H](CO)NC(=O)[C@H]([C@@H](C)O)NC(=O)[C@H](Cc2ccccc2)NC(=O)[C@H]([C@@H](C)O)NC(=O)[C@H](CCCCN)NC(=O)[C@H](Cc2c[nH]c3ccccc23)NC(=O)[C@H](Cc2ccccc2)NC(=O)[C@H](Cc2ccccc2)NC(=O)[C@H](CC(N)=O)NC(=O)[C@H](CCCCN)NC1=O [SRIF, somatostatin] |  |  |  |  |  |  |  |  |  | 2.0 ± 1.4 | 117 ± 6 | 136±12 |
